Among the test systems are SK-MEL-28 melanoma; XF 498 CNS; MOLT-4 leukemia; TK-10 renal; RXF 393 renal; CAKI-1 renal; M19-MEL melanoma; SN12C renal; M14 melanoma; T-47D breast.
Holding throughout (test): NCI tumour cell line growth inhibition, 48 h

Values joined by “and” are separate entries in the source; they are usually repeats but may differ in a detail not shown here. Equal entries are not always repeated.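 Five concentrations, 48 hours, 96-well plates. GI50: concentration for 50% inhibition of growth. At the TGI there is no net growth.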

Consider `O=c1c2ccccc2c(=O)n2n1-c1cccc(c1)CSSCc1cccc-2c1`, for which the GI50 in the experiment on SK-MEL-28 melanoma, in the experiment with MOLT-4 leukemia, in the experiment on TK-10 renal, in the experiment on CAKI-1 renal, with M19-MEL melanoma and in the experiment with SN12C renal was above 100 µM in each case. Also, the TGI in the experiment on SK-MEL-28 melanoma, in the experiment on XF 498 CNS, in the experiment on MOLT-4 leukemia, in the experiment with TK-10 renal, in the experiment on RXF 393 renal and in the experiment with CAKI-1 renal was above 100 µM throughout. The TGI in the experiment on M19-MEL melanoma and in the experiment with SN12C renal was above 100 µM each time.

`O=C(O)c1ccccc1NS(=O)(=O)c1ccc(Cl)cc1`: the TGI in the experiment on SK-MEL-28 melanoma, in the experiment on XF 498 CNS, with MOLT-4 leukemia, in the experiment with TK-10 renal, with M14 melanoma and with RXF 393 renal was above 100 µM in each case. Besides, the TGI in the experiment on CAKI-1 renal, in the experiment with M19-MEL melanoma and in the experiment with SN12C renal was above 100 µM each time.

On to `O=C(c1ccccc1)c1nc2ccc(Cl)cc2cc1C(Br)Br`, for which the TGI with SK-MEL-28 melanoma was 0.814 µM; in the experiment on XF 498 CNS, 2.5 µM; with MOLT-4 leukemia, 11.8 µM; in the experiment with TK-10 renal, 1.83 µM; with M14 melanoma it was 5.65 µM; in the experiment with RXF 393 renal, 0.361 µM. The TGI with T-47D breast was 1.12 µM; with CAKI-1 renal, 1.75 µM; with M19-MEL melanoma it was 1.49 µM; in the experiment with SN12C renal, 0.836 µM.

For the compound `O=c1cc(-c2cccc(Cl)c2)[nH]c2cc3c(cc12)OCO3`, the TGI in the experiment on XF 498 CNS was 13.8 µM; in the experiment on MOLT-4 leukemia, 75 µM and > 100 µM; in the experiment with TK-10 renal, 39.3 µM and 22.4 µM; in the experiment on M14 melanoma, 75 µM and 13.9 µM; with RXF 393 renal, 75 µM and 9.8 µM; in the experiment on T-47D breast, 65.3 µM. In addition, the TGI in the experiment with M19-MEL melanoma is 75 µM; in the experiment on SN12C renal, 75 µM and 12.5 µM. Moreover, the GI50 with MOLT-4 leukemia is 0.654 µM; in the experiment on M14 melanoma, 0.248 µM; in the experiment with RXF 393 renal, 0.164 µM and 0.626 µM; in the experiment on SN12C renal, 0.522 µM.

As to `COc1ccc2c(c1[N+](=O)[O-])CC[C@@H]1[C@@H]2CC[C@]2(C)C(=O)CC[C@@H]12`, the GI50 was above 843 µM in the experiment on SK-MEL-28 melanoma; above 1000 µM in the experiment on MOLT-4 leukemia; 577 µM in the experiment on TK-10 renal; above 562 µM in the experiment on M14 melanoma; 432 µM with RXF 393 renal; 675 µM in the experiment with T-47D breast. In addition, the GI50 in the experiment on CAKI-1 renal was 660 µM; in the experiment with SN12C renal, 983 µM. Also, the TGI in the experiment on XF 498 CNS is 25 µM; in the experiment with MOLT-4 leukemia, above 1000 µM; in the experiment on TK-10 renal, above 1000 µM; in the experiment with M14 melanoma it was above 562 µM; in the experiment with RXF 393 renal, above 927 µM; in the experiment on T-47D breast it was above 1000 µM. Besides, the results for the TGI in the experiment on CAKI-1 renal, in the experiment on M19-MEL melanoma and in the experiment with SN12C renal were above 1000 µM, above 25 µM and above 1000 µM, respectively.

On to `CSC(=Nc1ccc([N+](=O)[O-])cc1C#N)NC(=O)c1ccccc1`, for which the TGI with SK-MEL-28 melanoma, with XF 498 CNS, with MOLT-4 leukemia, in the experiment on TK-10 renal, with M14 melanoma and in the experiment with RXF 393 renal was above 100 µM in each case. In addition, the TGI in the experiment with CAKI-1 renal, with M19-MEL melanoma and with SN12C renal was above 100 µM each time.

Turning to `CCC(=O)N1C(=S)SC[C@H]1C(=O)OC`, the TGI in the experiment with SK-MEL-28 melanoma, in the experiment with XF 498 CNS, with MOLT-4 leukemia, in the experiment on TK-10 renal, in the experiment on M14 melanoma and with RXF 393 renal was above 100 µM each time. Besides, the TGI in the experiment with CAKI-1 renal, with M19-MEL melanoma and with SN12C renal was above 100 µM in each case.

Take `CN(C)CCN1C(=O)c2cccc3cc(N)cc(c23)C1=O`: the TGI in the experiment on SK-MEL-28 melanoma was 27.8 µM and 19.6 µM; in the experiment with XF 498 CNS, 3.64 µM; in the experiment on MOLT-4 leukemia it was > 100 µM and 13.5 µM; with TK-10 renal, 24.9 µM and 14.4 µM; with M14 melanoma it was 16.7 µM and 8.69 µM; with RXF 393 renal it was 18.1 µM and 10.6 µM. In addition, the TGI is > 57.1 µM and 32.4 µM in the experiment on T-47D breast; 11.1 µM and 7.59 µM in the experiment on CAKI-1 renal; 12.5 µM with M19-MEL melanoma; > 56.9 µM and 16.3 µM with SN12C renal. The GI50 with MOLT-4 leukemia is 1.88 µM; with TK-10 renal it was 3.27 µM; with T-47D breast, 3.66 µM; with CAKI-1 renal, 1.77 µM and 1.11 µM; in the experiment on SN12C renal it was 2.83 µM.

Regarding `O=C(c1ccccc1)[C@H]1Nc2ccc(Cl)cc2[C@H]2c3ccccc3O[C@H]21`, the TGI in the experiment with SK-MEL-28 melanoma came out at 25.8 µM; in the experiment on XF 498 CNS it was 28.2 µM; with MOLT-4 leukemia it was 37.7 µM; in the experiment with TK-10 renal it was 30.4 µM; in the experiment on M14 melanoma, 30.1 µM; in the experiment on RXF 393 renal, 22.4 µM. Also, the values for the TGI with CAKI-1 renal, with M19-MEL melanoma and with SN12C renal were 29.1 µM, 39.5 µM and 29.1 µM, respectively.

Consider `COC(=O)C1=C(C(=O)OC)C23CC4CCC2(C(=O)C1O3)C4(C)C` (configuration not stated), for which the TGI with SK-MEL-28 melanoma, in the experiment with XF 498 CNS, in the experiment on MOLT-4 leukemia, in the experiment on TK-10 renal, in the experiment with M14 melanoma and in the experiment on RXF 393 renal was above 100 µM in each case. Besides, the TGI in the experiment on CAKI-1 renal, in the experiment with M19-MEL melanoma and in the experiment with SN12C renal was above 100 µM each time.

As to `O=C1CN=C(c2ccccc2)c2ccncc2N1`, the TGI with SK-MEL-28 melanoma, in the experiment with XF 498 CNS, in the experiment with MOLT-4 leukemia, in the experiment on TK-10 renal, in the experiment on M14 melanoma and with RXF 393 renal was above 100 µM each time. Besides, the TGI in the experiment with CAKI-1 renal, in the experiment on M19-MEL melanoma and in the experiment with SN12C renal was above 100 µM each time.

Take `CN(N=O)C(=O)NC(CCCCNC(=O)OCc1ccccc1)C(=O)OCc1ccccc1` (configuration not stated): the TGI in the experiment on SK-MEL-28 melanoma is 56.1 µM; in the experiment on XF 498 CNS, 30.6 µM; in the experiment on MOLT-4 leukemia, 64.9 µM; in the experiment on TK-10 renal it was above 100 µM; with M14 melanoma, 36.9 µM; in the experiment on RXF 393 renal, 61.8 µM. In addition, the TGI with CAKI-1 renal was determined as 52.8 µM; in the experiment on M19-MEL melanoma it was 91.2 µM; with SN12C renal, 31.9 µM.

Turning to `CCOP(=O)(OCC)C(C(=O)OC)C(=O)C(=O)Nc1cccc([N+](=O)[O-])c1` (configuration not stated), the TGI in the experiment on SK-MEL-28 melanoma, with XF 498 CNS, with MOLT-4 leukemia, in the experiment on TK-10 renal, with M14 melanoma and with RXF 393 renal was above 100 µM throughout. Besides, the TGI in the experiment on CAKI-1 renal, in the experiment on M19-MEL melanoma and with SN12C renal was above 100 µM throughout.

Consider `CC1=NC2(C(=O)O)C3(C(=O)O)N=C(C)OC3(C(F)(F)F)C2(C(F)(F)F)O1` (configuration not stated), for which the TGI in the experiment with SK-MEL-28 melanoma, with XF 498 CNS, with MOLT-4 leukemia, with TK-10 renal, in the experiment on M14 melanoma and with RXF 393 renal was above 100 µM each time. The TGI with CAKI-1 renal, in the experiment on M19-MEL melanoma and in the experiment on SN12C renal was above 100 µM each time.

Turning to `NCCNCCNCc1c2ccccc2c(CNCCNCCN)c2ccccc12`, the TGI with SK-MEL-28 melanoma, in the experiment on XF 498 CNS, in the experiment on MOLT-4 leukemia, in the experiment on TK-10 renal, with M14 melanoma and in the experiment on RXF 393 renal was above 100 µM throughout. The TGI in the experiment with CAKI-1 renal, with M19-MEL melanoma and in the experiment on SN12C renal was above 100 µM each time.

Regarding `CS(=O)(=O)N(CCC#N)c1ccc(/C=C2\N=C(c3ccccc3Cl)OC2=O)cc1`, the TGI with SK-MEL-28 melanoma, in the experiment with XF 498 CNS, with MOLT-4 leukemia, in the experiment with TK-10 renal, in the experiment with M14 melanoma and in the experiment with RXF 393 renal was above 100 µM each time. Also, the TGI in the experiment on CAKI-1 renal, in the experiment on M19-MEL melanoma and with SN12C renal was above 100 µM throughout.
